# In patent US10413535B2, “Pharmaceutical compositions comprising an integrin ALPHA4 antagonist for use in treating ocular inflammatory conditions” (AXEROVISION, INC., priority 2015, dated 2019):
# Target: T1, α4β7-MAdCAM (Homo sapiens, UniProt P13612+P26010)
# T1 construct: endogenous in cells; host or cells: RPMI 8866 cells (human B lymphoid cell line)
# T1 sequence (P13612 34-1032): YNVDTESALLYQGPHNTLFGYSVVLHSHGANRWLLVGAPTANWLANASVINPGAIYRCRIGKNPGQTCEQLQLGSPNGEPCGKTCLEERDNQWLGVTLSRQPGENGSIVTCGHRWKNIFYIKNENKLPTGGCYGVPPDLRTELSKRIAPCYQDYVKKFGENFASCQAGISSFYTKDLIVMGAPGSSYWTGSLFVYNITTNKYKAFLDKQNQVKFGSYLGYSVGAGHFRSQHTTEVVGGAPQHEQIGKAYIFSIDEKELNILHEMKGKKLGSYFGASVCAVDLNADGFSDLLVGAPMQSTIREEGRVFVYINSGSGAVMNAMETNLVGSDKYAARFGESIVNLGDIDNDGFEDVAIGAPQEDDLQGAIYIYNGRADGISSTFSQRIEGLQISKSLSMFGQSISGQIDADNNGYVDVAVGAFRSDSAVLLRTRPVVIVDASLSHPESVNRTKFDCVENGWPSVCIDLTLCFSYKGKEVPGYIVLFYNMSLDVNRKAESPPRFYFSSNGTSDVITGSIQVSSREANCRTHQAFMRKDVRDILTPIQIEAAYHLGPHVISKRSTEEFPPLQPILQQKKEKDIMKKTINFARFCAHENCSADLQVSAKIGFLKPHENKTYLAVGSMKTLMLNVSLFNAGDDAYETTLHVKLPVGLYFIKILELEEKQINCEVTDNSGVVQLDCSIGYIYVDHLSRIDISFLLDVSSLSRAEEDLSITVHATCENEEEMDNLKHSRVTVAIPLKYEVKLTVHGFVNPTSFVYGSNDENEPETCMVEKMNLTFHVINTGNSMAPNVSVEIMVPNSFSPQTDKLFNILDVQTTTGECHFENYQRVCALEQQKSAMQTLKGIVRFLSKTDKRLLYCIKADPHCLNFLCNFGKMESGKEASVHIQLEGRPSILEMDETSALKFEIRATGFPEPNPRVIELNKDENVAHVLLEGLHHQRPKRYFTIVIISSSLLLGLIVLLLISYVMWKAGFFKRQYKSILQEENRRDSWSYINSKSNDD
# T1 sequence (P26010 20-798): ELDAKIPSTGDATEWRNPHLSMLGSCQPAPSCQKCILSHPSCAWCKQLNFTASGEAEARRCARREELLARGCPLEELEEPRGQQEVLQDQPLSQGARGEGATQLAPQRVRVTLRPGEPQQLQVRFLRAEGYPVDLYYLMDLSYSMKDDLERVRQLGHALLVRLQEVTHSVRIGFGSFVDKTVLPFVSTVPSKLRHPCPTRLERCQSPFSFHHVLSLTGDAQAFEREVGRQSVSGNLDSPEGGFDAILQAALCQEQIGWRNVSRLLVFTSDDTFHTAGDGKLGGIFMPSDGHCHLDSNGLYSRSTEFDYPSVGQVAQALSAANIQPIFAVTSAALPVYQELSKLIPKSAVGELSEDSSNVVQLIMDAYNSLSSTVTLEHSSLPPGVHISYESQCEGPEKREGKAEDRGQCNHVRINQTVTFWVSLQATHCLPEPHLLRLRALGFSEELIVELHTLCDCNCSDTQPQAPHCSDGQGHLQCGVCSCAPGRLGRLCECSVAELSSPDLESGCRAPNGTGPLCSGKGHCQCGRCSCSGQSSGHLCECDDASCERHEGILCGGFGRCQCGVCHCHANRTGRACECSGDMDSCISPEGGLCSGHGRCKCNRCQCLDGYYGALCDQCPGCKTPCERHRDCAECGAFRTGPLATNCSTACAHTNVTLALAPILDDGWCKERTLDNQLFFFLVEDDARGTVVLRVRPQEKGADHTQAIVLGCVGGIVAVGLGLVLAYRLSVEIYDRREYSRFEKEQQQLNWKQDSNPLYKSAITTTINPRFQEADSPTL
# Assay: MAdCAM cell adhesion assay, RPMI 8866 cells
# Type: cell-based
# Settings: RPMI 8866 cells to MAdCAM; read-out: Inhibition of cell adhesion (IC50)
# Method: Jurkat J6 cells (human lymphoblast cell line) were grown as a suspension culture in RPMI 1640 supplemented with FCS (10%) and glutamine (2 mM). RPMI8866 cells (human B lymphoid cell line) were grown as a suspension culture in RPMI 1640 supplemented with FCS (10%) and glutamine (2 mM). RBL-2H3 cells (rat basophilic cell line) were cultured in Eagle's MEM plus Earles salts supplemented with 2 mM L-glutamine, 1 mM sodium pyruvate, 1× non-essential amino acids, 1 mM Na pyruvate 10% heat inactivated foetal calf serum.
# Polystyrene 96-well microtitre plates were coated with IgG at a concentration of 0.05 mg/mL in bicarbonate buffer for 2.5 hours at 37° C. The solution was aspirated and the plates washed twice with PBS. The plates were then incubated overnight at 4° C. with MAdCAM at a concentration of 204.0 ng/mL in 3% BSA in PBS. Prior to use the MAdCAM was aspirated and the plates washed twice with PBS. J6 or RPMI cells (as required) were labelled with the fluorescent dye BCECF-AM (10 μM and 6×10^6 cells/mL) for 10 min at 37° C. before the excess was removed by centrifugation at 500 g for 5 min and the cells resuspended at a cell concentration of 1.2×10^7 cells/mL in HBSS. Equal volumes of HBSS containing the compound of formula I (over concentration range 38.1 pM to 10 μM) and cells were added to the MAdCAM coated plates. […] The plates were counted in a Wallac Viktor.
smiles,measurement,value
"Cc1ccccc1OCC(=O)N[C@@H](CC(C)C)C(=O)N[C@@H](Cc1ccc(OC(=O)N2CCC(C(N)=O)CC2)cc1)C(=O)O [GW559090, (2S)-3-[4-({[4-(Aminocarbonyl)-1-piperidinyl]carbonyl}oxy)phenyl]-2-[((2S)-4-methyl-2-{[2-(2-methylphenoxy)acetyl]amino}pentanoyl)amino]propanoic acid]",IC50,23 nM
